Test results taken from patent publication US9382213B2, “Heterocyclic and cyclic analogs of propargyl-linked inhibitors of dihydrofolate reductase” (PROMILIAD BIOPHARMA INC., priority 2014, dated 2016).
≈ marks a conversion by molar mass, not a printed value. Where two headings read alike, the source gives them in different places.

Experiments:
CaDHFR = target: T1, CaDHFR (Candida albicans, UniProt P22906); assay: DHFR enzyme inhibition (NADPH consumption at 340 nm), C. albicans DHFR; format: biochemical
T1 construct: made in house
T1 sequence (P22906 1-192): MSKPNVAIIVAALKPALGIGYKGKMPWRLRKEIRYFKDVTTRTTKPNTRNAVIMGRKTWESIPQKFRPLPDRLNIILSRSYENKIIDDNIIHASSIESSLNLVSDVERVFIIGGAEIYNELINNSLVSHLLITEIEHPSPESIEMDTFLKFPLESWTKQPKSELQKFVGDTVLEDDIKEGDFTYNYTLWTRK
Experimental: (§1) Med. Chem., 17:4866-4872 (2009)). Crystallization of the protein with ligand also followed previously described procedures (Paulsen et al 2011). Data were collected at Brookhaven National Laboratory, beamline X4A (CaDHFR) or X4C (CgDHFR). Molecular replacement was used to determine all three structures. Initial phase information was obtained using Phaser; electron density and model building used Coot. Refinement was carried out with Refmac 5 as part of the CCP4 package. Procheck was used to assess model quality.
(§2) Enzyme inhibition was determined by monitoring the consumption of NADPH at 340 nm for one minute. Reactions were performed with 20 mM TES pH 7.0, 50 mM KCl, 10 mM 2-mercaptoethanol, 0.5 mM EDTA and 1 mg/mL bovine serum albumin. Saturating concentrations of cofactor (100 μM NADPH) and substrate (100 μM dihydrofolate) were used with a limiting concentration of enzyme. All assays were conducted in triplicate at 25° C.

Human MCF-10 = assay: Mammalian cell cytotoxicity; format: cell-based
hDHFR = target: T2, hDHFR (Homo sapiens, UniProt P00374); assay: DHFR enzyme inhibition (NADPH consumption at 340 nm), human DHFR; format: biochemical
T2 sequence (P00374 1-187): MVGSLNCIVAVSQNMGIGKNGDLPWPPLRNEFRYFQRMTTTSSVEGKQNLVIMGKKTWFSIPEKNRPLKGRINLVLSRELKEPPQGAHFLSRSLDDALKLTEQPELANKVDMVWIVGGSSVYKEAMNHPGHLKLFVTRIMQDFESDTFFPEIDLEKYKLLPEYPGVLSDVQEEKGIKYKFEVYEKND
Experimental: as §2

[1] = tested on: C. albicans (strain SC5314); assay: Antifungal activity (MIC), Alamar Blue cell viability; format: cell-based, Candida albicans; settings: strain SC5314, GSB media, Alamar Blue after 24 hour incubation; for MIC: Candida albicans, SC5314, 24 h
Experimental: (§3) Stock cultures of C. albicans (strain SC5314) or C. glabrata (strain NCCLS84), thawed from storage in 50% glycerol at −80° C., were streaked on YM agar plates and grown at 37° C. for 48 hours. Isolated colonies from the plate were suspended in 100 mL of glucose-salt-biotin (GSB) media containing ammonia chloride (2 g), potassium phosphate (0.35 g), magnesium sulfate (0.24 g), sodium citrate (0.3 g), piperazine-N,N′-bis[2-ethanesulfonic acid] (3.4 g), biotin (40 mg) and glucose (20 g) in 1 L of water at a final pH of 7.1. […] An aliquot was removed from the shake flask culture, diluted to between 1×10^5 and 1×10^6 cells/mL in GSB media, and added to 96 well test plates (100 μL per well) containing test compounds dispensed in DMSO (1 μL). Amphotericin B and itraconazole were used as controls. C. albicans cell viability was determined by the addition of Alamar Blue (10 μL) to each well after a 24 hour incubation period. […] The XTT Cell Proliferation kit (ATCC) was used as an alternative. Tetrazolium dye, XTT, along with an electron activating reagent (50 μL) was added to 96 well plates and incubated for 24 hours at 37° C. Cell viability is indicated by a color change from a dark orange to a bright orange color that can be detected at […].

Kinetic solubility = format: physicochemical; settings: water, 0.2% DMSO, room temperature 30 min, HPLC
Experimental: Compounds were initially dissolved as […] dimethyl sulfoxide (DMSO) solutions and diluted in filtered water in the presence or absence of 200 μg/ml methylcellulose (METHOCEL A4M; Dow Corning, Midland, Mich.). Final concentration of DMSO of all samples is 0.2%. All samples were incubated at room temperature for 30 min and centrifuged for 10 min at 15,000 rpm. Supernatant of the samples were analyzed by reversed phase HPLC. The mobile phase consisted of 50% acetonitrile (ACN) and 50% potassium phosphate buffer (50 mM, pH 7.0), using an isocratic flow rate of 1.5 ml/min. Solubility was determined as the maximal concentration for which absorption is linearly related to the log of the concentration.

[2] = tested on: C. glabrata (strain NCCLS84); assay: Antifungal activity (MIC), XTT cell viability; format: cell-based, Candida glabrata; settings: strain NCCLS84, GSB media
Experimental: as §3

CgDHFR = target: T3, CgDHFR (Candida glabrata, UniProt Q6FPH0); assay: DHFR enzyme inhibition (NADPH consumption at 340 nm), C. glabrata DHFR; format: biochemical; settings: 100 μM NADPH, 100 μM dihydrofolate, pH 7.0, 25° C., triplicate
T3 construct: made in house
T3 sequence (Q6FPH0 entry or part of it): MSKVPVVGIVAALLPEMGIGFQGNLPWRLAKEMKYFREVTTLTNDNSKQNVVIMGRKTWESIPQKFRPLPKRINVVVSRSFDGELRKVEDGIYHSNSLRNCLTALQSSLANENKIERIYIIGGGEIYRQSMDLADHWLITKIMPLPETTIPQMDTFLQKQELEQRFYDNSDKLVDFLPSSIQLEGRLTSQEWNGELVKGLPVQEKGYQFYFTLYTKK
Experimental: as §1, §2

[3] = 100 μM NADPH, 100 μM dihydrofolate, pH 7.0, 25° C., triplicate
[4] = MCF10, Human MCF-10 cells, read-out: IC50 Human MCF-10

CCc1nc(N)nc(N)c1C#CC(C)c1ccc(-c2ccc(O)cc2)cc1OC (centres unmarked) [Compound 30, 4′-[3-(2,4-Diamino-6-ethyl-pyrimidin-5-yl)-1-methyl-prop-2-ynyl]-3′-methoxy-biphenyl-4-ol] gave an IC50 (CaDHFR; [3]) of 39 nM, a melting point of 188.1 to 189.3 °C and an IC50 (Human MCF-10; Homo sapiens, MCF10, read-out: IC50 Human MCF-10) of 148000 nM. For the same molecule, the IC50 (hDHFR; [3]) was 136 nM.
Molecule CCc1nc(N)nc(N)c1C#CC(C)c1ccc(-c2ccc(C#N)cc2)cc1OC (centres unmarked) [Compound 32, 4′-[3-(2,4-Diamino-6-ethyl-pyrimidin-5-yl)-1-methyl-prop-2-ynyl]-3′-methoxy-biphenyl-4-carbonitrile] has an IC50 (CaDHFR; [3]) of 50 nM, a melting point of 130.9 to 133.1 °C and an IC50 (Human MCF-10; [4]) of 50000 nM. It also gave an IC50 (hDHFR; [3]) of 477 nM.
In the case of CCc1nc(N)nc(N)c1C#CC(C)c1ccc(-c2ccc(OC(N)=O)cc2)cc1OC (centres unmarked) [Compound 33, Carbamic acid 4′-[3-(2,4-diamino-6-ethyl-pyrimidin-5-yl)-1-methyl-prop-2-ynyl]-3′-methoxy-biphenyl-4-yl ester], the IC50 (CaDHFR; [3]) is reported as 18 nM and the IC50 (hDHFR; [3]) is reported as 170 nM.
For CCc1nc(N)nc(N)c1C#CC(C)c1ccc(-c2ccc(C(=O)OC)cc2)cc1OC (centres unmarked) [Compound 34, 4′-[3-(2,4-Diamino-6-ethyl-pyrimidin-5-yl)-1-methyl-prop-2-ynyl]-3′-methoxy-biphenyl-4-carboxylic acid methyl ester], the IC50 (CaDHFR; [3]) was 46 nM, the melting point was 168.2 to 170.8 °C and the IC50 (Human MCF-10; [4]) was 96000 nM. The IC50 (hDHFR; [3]) was 49 nM.
CCc1nc(N)nc(N)c1C#CC(C)c1ccc(-c2ccc(N(C)C)cc2)cc1OC (centres unmarked) [Compound 35, 5-[3-(4′-Dimethylamino-3-methoxy-biphenyl-4-yl)-but-1-ynyl]-6-ethyl-pyrimidine-2,4-diamine] gave an IC50 (CaDHFR; pH 7) of 64 nM, a melting point of 135.2 to 136.1 °C and an IC50 (hDHFR; pH 7) of 147 nM.
For CCc1nc(N)nc(N)c1C#CC(C)c1ccc(-c2ccccc2)nc1 (centres unmarked) [Compound 46, 6-Ethyl-5-[3-(6-phenyl-pyridin-3-yl)-but-1-ynyl]-pyrimidine-2,4-diamine], the MIC [1] was 0.2 to 0.78 µg/mL (≈ 0.582 to 2.27 µM), the “MIC C. albicans” value [1] was 0.39 µg/mL (≈ 1.14 µM) and the solubility (Kinetic solubility) was 20 µg/mL (≈ 58.2 µM). The “MIC C. glabrata” value [2] was 0.78 µg/mL (≈ 2.27 µM), the IC50 (CgDHFR) was 23 nM and the IC50 (hDHFR; [3]) was 688 nM.
In the case of CCc1nc(N)nc(N)c1C#CC(C)c1ccc(-c2ccc(C)cc2)nc1 (centres unmarked) [Compound 47, 6-Ethyl-5-[3-(6-p-tolyl-pyridin-3-yl)-but-1-ynyl]-pyrimidine-2,4-diamine], the IC50 (CaDHFR; pH 7) is reported as 49 nM, the MIC [1] is reported as 0.2 to 0.78 µg/mL (≈ 0.56 to 2.18 µM) and the “MIC C. albicans” value [1] is reported as 0.39 µg/mL (≈ 1.09 µM). The melting point was 144 to 146.1 °C, the solubility (Kinetic solubility) was 15 µg/mL (≈ 42 µM) and the MIC ([2]; Nakaseomyces glabratus) was 0.2 to 0.78 µg/mL (≈ 0.56 to 2.18 µM). For the same molecule, the “MIC C. glabrata” value [2] was 0.2 µg/mL (≈ 0.56 µM), the IC50 (CgDHFR) was 27 nM and the IC50 (hDHFR; [3]) was 625 nM.
In the case of CCc1nc(N)nc(N)c1C#CC(C)c1cnc(-c2ccccc2)nc1 (centres unmarked) [Compound 48, 6-Ethyl-5-[3-(2-phenyl-pyrimidin-5-yl)-but-1-ynyl]-pyrimidine-2,4-diamine], the IC50 (CaDHFR; [3]) is reported as 37 nM, the MIC [1] is reported as 0.2 to 0.78 µg/mL (≈ 0.581 to 2.26 µM) and the “MIC C. albicans” value [1] is reported as 0.19 µg/mL (≈ 0.552 µM). The melting point was 161.3 to 162.8 °C, the IC50 (Human MCF-10; [4]) was 216000 nM and the solubility (Kinetic solubility) was 60 µg/mL (≈ 174 µM). For the same molecule, the “MIC C. glabrata” value [2] was 0.78 µg/mL (≈ 2.26 µM), the IC50 (CgDHFR) was 22 nM and the IC50 (hDHFR; [3]) was 180 nM.
